Paper PMC4496781, “Functional Roles of Aromatic Residues and Helices of Papiliocin in its Antimicrobial and Anti-inflammatory Activities” (Scientific Reports, 2015)
Like-named read-outs stand apart in the source and are kept apart here. Ends that are not written are not given here.

How the values were obtained:
Bacillus subtilis = conditions: 16 h
Experimental: (§1) MICs of the peptides against six standard bacteria and four multidrug-resistant bacteria were determined by a broth microdilution assay as described previously. […] Cytotoxicities against mammalian cells were measured against human RBCs, mouse macrophage-derived RAW264.7 cells, and fibroblast NIH-3T3 cells. The anti-inflammatory activities of the peptides were examined by inhibiting nitrite production in LPS-stimulated RAW264.7 cells.

Eenterococcus faecalis = conditions: E, 16 h
Experimental: as §1

Escherichia coli = conditions: 16 h
Experimental: as §1

Pseudomonas aeruginosa = conditions: 16 h
Experimental: as §1

Salmonella typhimurium = conditions: murium, 16 h
Experimental: as §1

Staphylococcus aureus = conditions: 16 h
Experimental: as §1

MDRAB 12035(R) = conditions: broth microdilution, 16 h; unit not given
Experimental: (§2) We examined the antimicrobial activities of the peptides against multidrug-resistant bacterial strains, including four gram-negative species (S. typhimurium 8009(R), E. coli 1229(R), P. aeruginosa 2095(R), and A. baumannii 12035(R); Table 3).
as §1

MDREC 1229(R) = conditions: 16 h
Experimental: as §2, §1

MDRPA 2095(R) = conditions: 16 h
Experimental: as §2, §1

MDRST 8009(R) = conditions: broth microdilution, 16 h; unit not given
Experimental: as §2, §1

[1] = test system: gram-negative bacteria (E. coli, S. typhimurium, P. aeruginosa); conditions: for GM of the MIC values, gram-negative: 16 h; for Therapeutic Index (MHC/GM), gram-negative: ratio MHC (μM) over GM of MIC (μM)
Experimental: (§3) This property is assessed by the therapeutic index which can be defined as a ratio of the […] against human hRBCs to the MIC against bacterial cells.
as §1

[2] = test system: gram-positive bacteria (B. subtilis, E. faecalis, S. aureus); conditions: for GM of the MIC values, gram-positive: 16 h; for Therapeutic Index (MHC/GM), gram-positive: ratio MHC (μM) over GM of MIC (μM)
Experimental: as §3, §1

[3] = test system: RAW264.7 macrophage cells; assay: Cytotoxicity, MTT; type: cell-based, mouse
Experimental: We examined the cytotoxicity against human erythrocytes. […] Next, we examined the cytotoxicity of the peptides against RAW264.7 macrophage cells. We assessed the effects of the peptides on cell growth by measuring mitochondrial reduction of MTT to a colored product in live cells. […] On the other hand, PapC produced high cytotoxicity against RAW264.7 cells, even at low concentrations. […] In case of PapN-2A, Pap-5A, and Pap-2A5A, the cell survival rates at a peptide concentration of 100 μM were approximately 90% or more. Thus, Trp^2 and Phe^5 are important for the cytotoxic activity of papiliocin toward RAW264.7 cells.
as §1

Row | Substance | MIC, Bacillus subtilis (Bacillus subtilis) [µM] | MIC, Eenterococcus faecalis (Eenterococcus faecalis) [µM] | MIC, Escherichia coli (Escherichia coli) [µM] | MIC, Pseudomonas aeruginosa (Pseudomonas aeruginosa) [µM] | MIC, Salmonella typhimurium (Salmonella typhimurium) [µM] | MIC, Staphylococcus aureus (Staphylococcus aureus) [µM] | MIC, MDRAB 12035(R) (MDRAB 12035(R)) [µM] | MIC, MDREC 1229(R) (MDREC 1229(R)) [µM] | MIC, MDRPA 2095(R) (MDRPA 2095(R)) [µM] | MIC, MDRST 8009(R) (MDRST 8009(R)) [µM] | GM of the MIC values, gram-negative [1] [µM] | Therapeutic Index (MHC/GM), gram-negative [1] | GM of the MIC values, gram-positive [2] [µM] | Therapeutic Index (MHC/GM), gram-positive [2] | Therapeutic Index (MHC/GM), gram-positive ([2]; listed as papiliocin) | cytotoxicity at the peptide's MIC [3]
1 | RAKIAKKIEKVGRNVRDGIIKA-NH2 [PapN-2A5A] | >128 | >128 | 2.00 | 8.00 | 4.00 | 128 | 32.0 | 4.00 | 16.0 | 8.00 | 4.67 | 42.9 | 213 | 0.939 |  | 
2 | RAKIAKKIEKVGRNVRDGIIKAGPAVAVVGQAATVVK-NH2 [Papiliocin-2A5A] | 128 | >128 | 0.500 | 0.500 | 1.00 | >128 | 0.500 | 2.00 | 1.00 | 4.00 | 0.667 |  | 213 | 0.939 |  | 
3 | RAKIFKKIEKVGRNVRDGIIKA-NH2 [PapN-2A] | 32.0 | 128 | 2.00 | 4.00 | 4.00 | 32.0 | 8.00 | 2.00 | 4.00 | 2.00 | 3.33 | 60.0 | 64.0 | 3.13 |  | 
4 | RAKIFKKIEKVGRNVRDGIIKAGPAVAVVGQAATVVK-NH2 [Papiliocin-2A] | 64.0 | 128 | 0.250 | 0.500 | 0.500 | 128 | 0.500 | 1.00 | 1.00 | 1.00 | 0.417 |  | 107 | 1.87 |  | 
5 | RFKIWKKIEKVGRNVRDGIIKA-NH2 [PapN-2F5W] | 8.00 | 64.0 | 1.00 | 2.00 | 2.00 | 16.0 | 4.00 | 2.00 | 2.00 | 2.00 | 1.67 | 120 | 29.3 |  |  | 
6 | RWKIAKKIEKVGRNVRDGIIKA-NH2 [PapN-5A] | 16.0 | 128 | 1.00 | 2.00 | 2.00 | 16.0 | 8.00 | 2.00 | 8.00 | 4.00 | 1.67 | 120 | 53.3 | 3.75 |  | 
7 | RWKIAKKIEKVGRNVRDGIIKAGPAVAVVGQAATVVK-NH2 [Papiliocin-5A] | 64.0 | 128 | 0.250 | 0.500 | 0.500 | 128 | 0.500 | 1.00 | 1.00 | 1.00 | 0.417 |  | 107 | 1.87 |  | 
8 | RWKIFKKIEKVGRNVRDGIIKA-NH2 [PapN] | 8.00 | 64.0 | 1.00 | 2.00 | 2.00 | 8.00 | 2.00 | 4.00 | 2.00 | 2.00 | 1.67 | 120 | 26.7 |  |  | 
9 | RWKIFKKIEKVGRNVRDGIIKAGPAVAVVGQAATVVK-NH2 [Papiliocin] | 16.0 | 64.0 | 0.250 | 0.500 | 0.500 | 32.0 | 0.500 | 0.500 | 1.00 | 0.500 | 0.417 |  | 37.3 | 5.36 | 12.0 | not toxic at their MICs
